# Experimental data as given in patent publication US20250042895A1, “INHIBITORS OF ULK1 AND METHODS OF USE” (H. LEE MOFFITT CANCER CENTER AND RESEARCH INSTITUTE, INC., priority 2021, published 2025).
# pEC50, pIC50: −log10 of the molar value.
# What was measured:
# ULK1 kinase domain = biological target: T1, ULK1 kinase domain (Homo sapiens, UniProt O75385); assay: Differential scanning fluorimetry (thermal shift); format: binding; conditions: 2 μM ULK1 kinase domain, 50 μM compound, vs DMSO reference
# T1 construct: The protein expression construct of ULK1 kinase domain (1-283) was cloned; 6His-Sumo (N, cleaved yes); made in house; host or cells: E. coli BL21 star, co-expressed with lambda phosphatase
# T1 sequence (O75385 1-283): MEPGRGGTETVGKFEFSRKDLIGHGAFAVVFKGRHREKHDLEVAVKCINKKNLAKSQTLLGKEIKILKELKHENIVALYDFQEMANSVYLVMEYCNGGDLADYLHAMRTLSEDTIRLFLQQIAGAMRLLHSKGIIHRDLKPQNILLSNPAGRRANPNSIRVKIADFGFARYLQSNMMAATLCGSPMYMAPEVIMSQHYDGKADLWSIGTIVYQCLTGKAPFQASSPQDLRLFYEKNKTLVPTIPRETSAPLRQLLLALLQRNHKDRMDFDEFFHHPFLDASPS
# ULK1 kinase = biological target: T2, ULK1 kinase (Homo sapiens, UniProt O75385); assay: Radiometric HotSpot kinase assay (Reaction Biology); format: biochemical; conditions: activity-based ULK1 kinase assay
# T2 construct: purchased Reaction Biology
# T2 sequence (O75385 1-1050): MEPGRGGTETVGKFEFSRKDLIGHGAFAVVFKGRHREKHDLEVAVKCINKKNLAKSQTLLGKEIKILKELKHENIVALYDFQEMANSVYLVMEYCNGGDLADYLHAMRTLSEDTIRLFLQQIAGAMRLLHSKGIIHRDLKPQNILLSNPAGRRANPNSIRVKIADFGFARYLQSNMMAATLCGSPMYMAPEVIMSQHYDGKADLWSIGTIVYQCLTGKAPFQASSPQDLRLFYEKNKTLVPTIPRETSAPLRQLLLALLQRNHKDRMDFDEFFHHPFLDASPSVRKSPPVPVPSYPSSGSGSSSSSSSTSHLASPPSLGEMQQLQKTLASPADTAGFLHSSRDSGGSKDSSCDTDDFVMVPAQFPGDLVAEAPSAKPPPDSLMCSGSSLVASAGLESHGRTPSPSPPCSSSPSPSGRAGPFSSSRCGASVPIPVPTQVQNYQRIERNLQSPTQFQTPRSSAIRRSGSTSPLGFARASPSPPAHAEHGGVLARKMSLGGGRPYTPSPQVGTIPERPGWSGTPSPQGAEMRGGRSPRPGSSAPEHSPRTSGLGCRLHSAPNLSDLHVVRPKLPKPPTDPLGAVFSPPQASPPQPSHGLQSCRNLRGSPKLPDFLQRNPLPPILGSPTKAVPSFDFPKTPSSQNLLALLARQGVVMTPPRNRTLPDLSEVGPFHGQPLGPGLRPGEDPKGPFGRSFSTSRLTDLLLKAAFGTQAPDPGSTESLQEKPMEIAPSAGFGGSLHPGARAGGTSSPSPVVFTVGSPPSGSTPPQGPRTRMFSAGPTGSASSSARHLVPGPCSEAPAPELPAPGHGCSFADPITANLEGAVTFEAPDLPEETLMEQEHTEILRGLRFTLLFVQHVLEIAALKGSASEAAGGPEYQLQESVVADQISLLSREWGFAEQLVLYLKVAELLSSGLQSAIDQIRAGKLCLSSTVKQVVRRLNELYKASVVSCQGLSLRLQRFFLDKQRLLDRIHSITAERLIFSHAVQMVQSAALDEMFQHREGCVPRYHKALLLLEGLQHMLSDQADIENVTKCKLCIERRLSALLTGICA
# GST-ULK1 = biological target: T3, GST-ULK1 (Homo sapiens, UniProt O75385); assay: LanthaScreen ULK1 inhibitor assay; format: biochemical; conditions: 5 nM GST-ULK1, 30 nM tracer, 20 μM ATP, 1 hr room temperature
# T3 sequence (O75385 1-1050): T2 sequence (O75385 1-1050)
# ULK1-nanoluc = biological target: T4, ULK1-nanoluc (Homo sapiens, UniProt O75385); assay: NanoBRET target engagement in live cells; format: cell-based; conditions: H2030 cells transfected with ULK1-nanoluc, Tracer K10, 2 hr
# T4 construct: host or cells: H2030 cells (ATCC)
# T4 sequence (O75385 1-1050): T2 sequence (O75385 1-1050)
Structure (SMILES),ΔTm at 50 µM (ULK1 kinase domain),IC50 (ULK1 kinase),pIC50 (GST-ULK1),pEC50 (ULK1-nanoluc)
"O=C(NCC(F)(F)F)c1cc(-c2cnc3[nH]c(-c4ccc(OCCN5CCCCC5)cc4)cc3c2)cs1 [Compound 38, 4-(2-(4-(2-(Piperidin-1-yl)ethoxy)phenyl)-1H-pyrrolo[2,3-b]pyridin-5-yl)-N-(2,2,2-trifluoroethyl)thiophene-2-carboxamide]",12.8 °C,15 nM,7.85,7.66
"O=C(NC[C@H](O)CO)c1cccc(-c2cnc3[nH]c(-c4ccc(F)cc4)cc3c2)n1 [Compound 58, (S)—N-(2,3-Dihydroxypropyl)-6-(2-(4-fluorophenyl)-1H-pyrrolo[2,3-b]pyridin-5-yl)-picolinamide]",9.22 °C,22 nM,7.17,5.63
"CC[C@@H](CO)NC(=O)c1cccc(-c2cnc3[nH]c(-c4ccc(F)cc4)cc3c2)n1 [Compound 59, (S)-6-(2-(4-Fluorophenyl)-1H-pyrrolo[2,3-b]pyridin-5-yl)-N-(1-hydroxybutan-2-yl)-picolinamide]",11 °C,7 nM,8.00,6.83
"CC[C@@H](CO)NC(=O)c1nc(-c2cnc3[nH]c(-c4ccc(F)cc4)cc3c2)cs1 [Compound 61, (S)-4-(2-(4-Fluorophenyl)-1H-pyrrolo[2,3-b]pyridin-5-yl)-N-(1-hydroxybutan-2-yl)-thiazole-2-carboxamide]",9.31 °C,8 nM,8.15,6.88
"O=C(NCC(O)C(F)(F)F)c1nc(-c2cnc3[nH]c(-c4ccc(F)cc4)cc3c2)cs1 (stereo not drawn) [Compound 65, 4-(2-(4-Fluorophenyl)-1H-pyrrolo[2,3-b]pyridin-5-yl)-N-(3,3,3-trifluoro-2-hydroxy-propyl)thiazole-2-carboxamide]",7.12 °C,29 nM,7.77,6.91
"O=C(NCC1(O)CCC1)c1nc(-c2cnc3[nH]c(-c4ccc(F)cc4)cc3c2)cs1 [Compound 70, 4-(2-(4-fluorophenyl)-1H-pyrrolo[2,3-b]pyridin-5-yl)-N-((1-hydroxycyclobutyl)methyl)thiazole-2-carboxamide]",8.04 °C,22 nM,8.10,6.89
"O=C(NCC1CC1)c1nc(-c2cnc3[nH]c(-c4ccc(F)cc4)cc3c2)cs1 [Compound 71, N-(cyclopropylmethyl)-4-(2-(4-fluorophenyl)-1H-pyrrolo[2,3-b]-pyridin-5-yl)thiazole-2-carboxamide]",3.73 °C,14 nM,7.41,6.38
"O=C(NCC1(O)CC1)c1nc(-c2cnc3[nH]c(-c4ccc(F)cc4)cc3c2)cs1 [Compound 73, 4-(2-(4-fluorophenyl)-1H-pyrrolo-[2,3-b]pyridin-5-yl)-N-((1-hydroxy-cyclopropyl)methyl)thiazole-2-carboxamide]",7.72 °C,10 nM,8.52,6.71
"C[C@@H](CO)NC(=O)c1nc(-c2cnc3[nH]c(-c4ccc(F)cc4)cc3c2)cs1 [Compound 76, (S)-4-(2-(4-fluorophenyl)-1H-pyrrolo[2,3-b]pyridin-5-yl)-N-(1-hydroxypropan-2-yl)thiazole-2-carboxamide]",7.56 °C,44 nM,7.60,6.27
"O=C(NCCF)c1nc(-c2cnc3[nH]c(-c4ccc(F)cc4)cc3c2)cs1 [Compound 78, N-(2-fluoroethyl)-4-(2-(4-fluoro-phenyl)-1H-pyrrolo[2,3-b]pyridin-5-yl)thiazole-2-carboxamide]",4.83 °C,20 nM,7.57,6.55
"O=C(NCC(F)F)c1nc(-c2cnc3[nH]c(-c4ccc(F)cc4)cc3c2)cs1 [Compound 79, N-(2,2-difluoroethyl)-4-(2-(4-fluorophenyl)-1H-pyrrolo[2,3-b]-pyridin-5-yl)thiazole-2-carboxamide]",5.45 °C,12 nM,7.80,6.81
"FC(F)(F)c1cnc2[nH]c(C3=CCOCC3)cc2c1NCCN1CCNCC1 [Compound 87, 2-(3,6-dihydro-2H-pyran-4-yl)-N-(2-(piperazin-1-yl)ethyl)-5-(trifluoromethyl)-1H-pyrrolo[2,3-b]pyridin-4-amine]",12.5 °C,10 nM,7.80,7.12
"FC(F)(F)c1cnc2[nH]c(C3=CCOCC3)cc2c1NCCN1CCOCC1 [Compound 89, 2-(3,6-dihydro-2H-pyran-4-yl)-N-(2-morpholinoethyl)-5-(trifluoromethyl)-1H-pyrrolo[2,3-b]pyridin-4-amine]",8.13 °C,37 nM,7.04,5.94
"CN1CC=C(c2cc3c(NC4CCNC4)c(C(F)(F)F)cnc3[nH]2)CC1 (stereo not drawn) [Compound 98, 2-(1-methyl-1,2,3,6-tetrahydropyridin-4-yl)-N-(pyrrolidin-3-yl)-5-(trifluoromethyl)-1H-pyrrolo[2,3-b]pyridin-4-amine]",10.3 °C,144 nM,7.24,6.74
"CN1CC=C(c2cc3c(NCCN4CCNCC4)c(C(F)(F)F)cnc3[nH]2)CC1 [Compound 101, 2-(1-methyl-1,2,3,6-tetrahydropyridin-4-yl)-N-(2-(piperazin-1-yl)ethyl)-5-(trifluoromethyl)-1H-pyrrolo[2,3-b]pyridin-4-amine]",11 °C,131 nM,7.30,6.80
C[C@@H](CO)NC(=O)c1cc(-c2cnc3[nH]c(C4=CCNC4)cc3c2)cs1 [Compound 104],,,7.54,5.37
C[C@H](CO)NC(=O)c1cc(-c2cnc3[nH]c(C4=CCNC4)cc3c2)cs1 [Compound 105],,,6.86,≤ 5.00
C[C@@H](CO)NC(=O)c1cc(-c2cnc3[nH]c(C4=CCNCC4)cc3c2)cs1 [Compound 106],,,7.80,5.95
C[C@@H](CO)NC(=O)c1cc(-c2cnc3[nH]c(C4=CCN(C)CC4)cc3c2)cs1 [Compound 107],,,7.72,6.41
O=C(NCC1(O)CC1)c1cc(-c2cnc3[nH]c(C4=CNCCC4)cc3c2)cs1 [Compound 108],,,7.59,6.66
FC1(F)CN(c2c(C(F)(F)F)cnc3[nH]c(C4=CCNC4)cc23)C1 [Compound 140],,,9.00,7.07
